Results as given in ChEMBL document CHEMBL3044631, “Synthesis of 2-[4,5-dimethyl-1-(phenylamino)-1H-imidazol-2-ylthio]-N-(thiazole-2-yl)acetamide derivatives and their anticancer activities” (2013).

Experiments:
Format in all cases: functional
[1] = tested on: DU-145; experiment: Anticancer activity against Homo sapiens (human) DU145 cells after 48 hr by SRB assay; details: DU-145, 48 h
[2] = tested on: Malme-3M; experiment: Anticancer activity against Homo sapiens (human) MALME-3M cells after 48 hr by SRB assay; details: for CC50: read-out: LC50 (the source's name)
[3] = tested on: HT-29; experiment: Anticancer activity against Homo sapiens (human) HT-29 cells after 48 hr by SRB assay; details: HT-29, 48 h
[4] = tested on: MDA-MB-435; experiment: Anticancer activity against Homo sapiens (human) MDA-MB-435 cells after 48 hr by SRB assay; details: MDA-MB-435, 48 h
[5] = tested on: SNB-19; experiment: Anticancer activity against Homo sapiens (human) SNB19 cells after 48 hr by SRB assay; details: SNB-19, 48 h
[6] = tested on: LOX IMVI; experiment: Anticancer activity against Homo sapiens (human) LOXIMVI cells after 48 hr by SRB assay
[7] = tested on: BT-549; experiment: Anticancer activity against Homo sapiens (human) BT549 cells after 48 hr by SRB assay; details: BT-549, 48 h
[8] = tested on: MOLT-4; experiment: Anticancer activity against Homo sapiens (human) MOLT4 cells after 48 hr by SRB assay; details: MOLT-4, 48 h
[9] = tested on: COLO 205; experiment: Anticancer activity against Homo sapiens (human) COLO205 cells after 48 hr by SRB assay; details: COLO 205, 48 h; for CC50: read-out: LC50 (the source's name)
[10] = tested on: HOP-62; experiment: Anticancer activity against Homo sapiens (human) HOP62 cells after 48 hr by SRB assay; details: HOP-62, 48 h
[11] = tested on: UO-31; experiment: Anticancer activity against Homo sapiens (human) UO31 cells after 48 hr by SRB assay; details: UO-31, 48 h; for CC50: read-out: LC50 (the source's name)
[12] = tested on: NCI/ADR-RES; experiment: Anticancer activity against Homo sapiens (human) NCI/ADR-RES cells after 48 hr by SRB assay
[13] = tested on: NCI-H460; experiment: Anticancer activity against Homo sapiens (human) NCI-H460 cells after 48 hr by SRB assay; details: NCI-H460, 48 h
[14] = tested on: HCT-15; experiment: Anticancer activity against Homo sapiens (human) HCT15 cells after 48 hr by SRB assay; details: HCT-15, 48 h; for CC50: read-out: LC50 (the source's name)
[15] = tested on: A549; experiment: Anticancer activity against Homo sapiens (human) A549/ATCC cells after 48 hr by SRB assay; details: A549, 48 h
[16] = tested on: NCI-H23; experiment: Anticancer activity against Homo sapiens (human) NCI-H23 cells after 48 hr by SRB assay; details: NCI-H23, 48 h; for CC50: read-out: LC50 (the source's name)
[17] = tested on: HL-60(TB); experiment: Anticancer activity against Homo sapiens (human) HL-60(TB) cells after 48 hr by SRB assay; details: HL-60, 48 h; for CC50: read-out: LC50 (the source's name)
[18] = tested on: ACHN; experiment: Anticancer activity against Homo sapiens (human) ACHN cells after 48 hr by SRB assay
[19] = tested on: SK-MEL-5; experiment: Anticancer activity against Homo sapiens (human) SK-MEL-5 cells after 48 hr by SRB assay; details: SK-MEL-5, 48 h
[20] = tested on: OVCAR-5; experiment: Anticancer activity against Homo sapiens (human) OVCAR5 cells after 48 hr by SRB assay; details: OVCAR-5, 48 h
[21] = tested on: EKVX; experiment: Anticancer activity against Homo sapiens (human) EKVX cells after 48 hr by SRB assay; details: for CC50: read-out: LC50 (the source's name)
[22] = tested on: A498; experiment: Anticancer activity against Homo sapiens (human) A498 cells after 48 hr by SRB assay; details: A498, 48 h
[23] = tested on: K562; experiment: Anticancer activity against Homo sapiens (human) K562 cells after 48 hr by SRB assay; details: K562, 48 h; for CC50: read-out: LC50 (the source's name)
[24] = tested on: OVCAR-8; experiment: Anticancer activity against Homo sapiens (human) OVCAR8 cells after 48 hr by SRB assay; details: OVCAR-8, 48 h; for CC50: read-out: LC50 (the source's name)
[25] = tested on: NCI-H522; experiment: Anticancer activity against Homo sapiens (human) NCI-H522 cells after 48 hr by SRB assay; details: NCI-H522, 48 h
[26] = tested on: OVCAR-3; experiment: Anticancer activity against Homo sapiens (human) OVCAR3 cells after 48 hr by SRB assay; details: OVCAR-3, 48 h
[27] = tested on: IGROV-1; experiment: Anticancer activity against Homo sapiens (human) IGROV1 cells after 48 hr by SRB assay; details: IGROV-1, 48 h
[28] = tested on: SF-268; experiment: Anticancer activity against Homo sapiens (human) SF268 cells after 48 hr by SRB assay; details: SF-268, 48 h
[29] = tested on: UACC-62; experiment: Anticancer activity against Homo sapiens (human) UACC62 cells after 48 hr by SRB assay; details: UACC-62, 48 h
[30] = tested on: SF-295; experiment: Anticancer activity against Homo sapiens (human) SF295 cells after 48 hr by SRB assay; details: SF-295, 48 h
[31] = tested on: CCRF-CEM; experiment: Anticancer activity against Homo sapiens (human) CCRF-CEM cells assessed as cell growth promotion at 10 uM after 48 hr by SRB assay

Cc1nc(SCC(=O)Nc2nc(-c3ccc(Cl)cc3)cs2)n(Nc2ccccc2)c1C
GI50 [1]: 5.64 µM | LC50 (concentration killing 50% of cells) [1]: 45.4 µM | TGI [1]: 18.7 µM | GI50 [2]: 10.8 µM | TGI [2]: 37.6 µM | CC50 [2]: > 100 µM | GI50 [3]: 3.78 µM | LC50 [3]: 49.5 µM | TGI [3]: 15.4 µM | GI50 [4]: 3.25 µM | LC50 (concentration killing 50% of cells) [4]: > 100 µM | TGI [4]: 21.8 µM | GI50 [5]: 9.41 µM | LC50 [5]: 61.7 µM | TGI [5]: 24.6 µM | GI50 [6]: 1.78 µM | LC50 (50% lethal concentration) [6]: 7.79 µM | TGI [6]: 3.72 µM | GI50 [7]: 7.02 µM | LC50 [7]: 51.8 µM | TGI [7]: 20.9 µM | GI50 [8]: 2.51 µM | LC50 (50% lethal concentration) [8]: > 100 µM | TGI [8]: 9.94 µM | GI50 [9]: 4.13 µM | TGI [9]: 14.5 µM | CC50 [9]: 49.8 µM | GI50 [10]: 3.06 µM | LC50 [10]: 31.7 µM | TGI [10]: 9.63 µM | GI50 [11]: 3.59 µM | TGI [11]: 37.7 µM | CC50 [11]: > 100 µM | GI50 [12]: 2.6 µM | LC50 [12]: 69.9 µM | TGI [12]: 7.18 µM | GI50 [13]: 2.89 µM | LC50 [13]: 82.1 µM | TGI [13]: 11 µM | GI50 [14]: 5.74 µM | TGI [14]: 23.3 µM | CC50 [14]: 76.9 µM | GI50 [15]: 2.9 µM | LC50 [15]: 40.1 µM | TGI [15]: 11.6 µM | GI50 [16]: 1.85 µM | TGI [16]: 6.02 µM | CC50 [16]: 26.3 µM | GI50 [17]: 2.99 µM | TGI [17]: > 100 µM | CC50 [17]: > 100 µM | GI50 [18]: 3.67 µM | LC50 (concentration killing 50% of cells) [18]: 51.5 µM | TGI [18]: 14.1 µM | GI50 [19]: 2.24 µM | LC50 (concentration killing 50% of cells) [19]: 25.8 µM | TGI [19]: 6.31 µM | GI50 [20]: 2.65 µM | LC50 [20]: 54.2 µM | TGI [20]: 13.5 µM | GI50 [21]: 1.84 µM | TGI [21]: 12.2 µM | CC50 [21]: 94.1 µM | GI50 [22]: 2.24 µM | LC50 [22]: 35.8 µM | TGI [22]: 10.5 µM | GI50 [23]: 0.12 µM | TGI [23]: > 100 µM | CC50 [23]: > 100 µM | GI50 [24]: 2.71 µM | TGI [24]: 7.73 µM | CC50 [24]: 38.9 µM | GI50 [25]: 2.54 µM | LC50 (50% lethal concentration) [25]: 66.5 µM | TGI [25]: 13.7 µM | GI50 [26]: 3 µM | LC50 (50% lethal concentration) [26]: 36.2 µM | TGI [26]: 12.1 µM | GI50 [27]: 3.36 µM | LC50 (concentration killing 50% of cells) [27]: > 100 µM | TGI [27]: 20.6 µM | GI50 [28]: 4.8 µM | LC50 [28]: 58.8 µM | TGI [28]: 20.1 µM | GI50 [29]: 3.09 µM | LC50 [29]: 50.3 µM | TGI [29]: 16.1 µM | GI50 [30]: 2.29 µM | LC50 [30]: > 100 µM | TGI [30]: 16.5 µM

Cc1nc(SCC(=O)Nc2nccs2)n(Nc2ccccc2)c1C
Activity [31]: 102.19%

CCOC(=O)c1csc(NC(=O)CSc2nc(C)c(C)n2Nc2ccc(C)cc2)n1
Activity [31]: 24.68%

Cc1nc(SCC(=O)Nc2nccs2)n(Nc2ccc(Cl)cc2)c1C
Activity [31]: 99.59%

COc1ccc(Nn2c(SCC(=O)Nc3nccs3)nc(C)c2C)cc1
Activity [31]: 100.87%

COc1ccc(Nn2c(SCC(=O)Nc3nc(-c4ccc(Cl)cc4)cs3)nc(C)c2C)cc1
GI50 [1]: 4.06 µM | LC50 (concentration killing 50% of cells) [1]: > 100 µM | TGI [1]: > 100 µM | GI50 [2]: 2.9 µM | TGI [2]: > 100 µM | CC50 [2]: > 100 µM | GI50 [3]: 4.61 µM | LC50 [3]: > 100 µM | TGI [3]: 50.4 µM | GI50 [4]: 3.22 µM | LC50 (concentration killing 50% of cells) [4]: > 100 µM | TGI [4]: > 100 µM | GI50 [5]: 6.2 µM | LC50 [5]: > 100 µM | TGI [5]: > 100 µM | GI50 [6]: 3.02 µM | LC50 (50% lethal concentration) [6]: > 100 µM | TGI [6]: 44.2 µM | GI50 [7]: 6.46 µM | LC50 [7]: > 100 µM | TGI [7]: 82 µM | GI50 [8]: 2.54 µM | LC50 (50% lethal concentration) [8]: > 100 µM | TGI [8]: > 100 µM | GI50 [9]: 1.94 µM | TGI [9]: 3.55 µM | CC50 [9]: 6.51 µM | LC50 [10]: > 100 µM | GI50 [11]: 2.62 µM | TGI [11]: > 100 µM | CC50 [11]: > 100 µM | GI50 [12]: 2.89 µM | LC50 [12]: > 100 µM | TGI [12]: > 100 µM | GI50 [13]: 2.69 µM | LC50 [13]: > 100 µM | TGI [13]: 10.6 µM | GI50 [14]: 4.79 µM | TGI [14]: > 100 µM | CC50 [14]: > 100 µM | GI50 [15]: 3.32 µM | LC50 [15]: > 100 µM | TGI [15]: > 100 µM | GI50 [16]: 1.53 µM | TGI [16]: > 100 µM | CC50 [16]: > 100 µM | GI50 [17]: > 100 µM | TGI [17]: 59.1 µM | CC50 [17]: > 100 µM | GI50 [18]: 2.27 µM | LC50 (concentration killing 50% of cells) [18]: > 100 µM | TGI [18]: 8.76 µM | GI50 [19]: 1.41 µM | LC50 (concentration killing 50% of cells) [19]: 7.96 µM | TGI [19]: 3.35 µM | GI50 [20]: > 100 µM | LC50 [20]: > 100 µM | TGI [20]: > 100 µM | GI50 [21]: 1.92 µM | TGI [21]: > 100 µM | CC50 [21]: > 100 µM | GI50 [22]: 2.22 µM | LC50 [22]: > 100 µM | TGI [22]: 56.5 µM | GI50 [23]: 1.58 µM | TGI [23]: > 100 µM | CC50 [23]: > 100 µM | GI50 [24]: 4.82 µM | TGI [24]: > 100 µM | CC50 [24]: > 100 µM | GI50 [25]: 5.05 µM | LC50 (50% lethal concentration) [25]: > 100 µM | TGI [25]: > 100 µM | GI50 [26]: 3.13 µM | LC50 (50% lethal concentration) [26]: > 100 µM | TGI [26]: 24.2 µM | GI50 [27]: 5.67 µM | LC50 (concentration killing 50% of cells) [27]: > 100 µM | TGI [27]: > 100 µM | GI50 [28]: 2.81 µM | LC50 [28]: > 100 µM | TGI [28]: > 100 µM | GI50 [29]: 3.62 µM | LC50 [29]: > 100 µM | TGI [29]: > 100 µM | GI50 [30]: 2.18 µM | LC50 [30]: > 100 µM | TGI [30]: > 100 µM
